# In patent US10188633B2, “Identification of small molecules that facilitate therapeutic exon skipping” (The Regents of the University of California, priority 2011, dated 2019):
# Assays:
# [1] = test system: human DMD exon 50 GFP based reporter; experiment: BioMol high throughput screen in Ex50-GFP reporter C2C12 myoblasts, with or without AON6; format: cell-based, mouse
# DMD exon 51 = DMD exon 51 skipping in reprogrammed DMD patient fibroblasts fused to myotubes (GM05017, iDRM05017) with exon 51 AO; format: cell-based, human
# Description: (A) Differentiated primary mouse myotubes were transfected either with 100 nM 2′-O-methyl M23D, which targets exon 23 splice donor region or mock transfected for 24 hours after which the transfection reagent was removed, and myotubes were treated with different concentrations of Dantrolene for 48 hours. Nested RT-PCR was performed on cDNA between exons 20-26, as previously described. The 901 bp band is the full-length mRNA product, the 688 bp mRNA product is a single skip of exon 23, and the 550 bp mRNA product is a double skip of exons 22 and 23. (B) Mouse Dmd exon 23-skipped transcript levels were quantified using a taqman assay with primer-probe sets spanning the splice junction created by an exon 23 skip (22-24 join) relative to primers amplifying the splice junction of exons 22 and 23 (representing the full length mRNA), as previously described. […] Error bars represent standard deviation of qRT-PCR triplicates. (C) Patient derived fibroblasts with exon 45-50 deletion (confirmed by microarray, see FIG. 6) were immortalized with lentiviral hTERT and transduced with inducible lentiviral MyoD [26]. Cells were grown to confluence, induced for MyoD activity, and fused for 10 days in low serum differentiation media. On Day 7, h51AON [5′ […] 3′] (SEQ ID NO:2) (same sequence as Pro051) within human exon 51 was added at concentrations indicated. Twenty-four hours later Dantrolene or vehicle was added. Cells were harvested 2 days later and total RNA isolated. RT-PCR amplified a fragment of cDNA from exons 42-53 which was followed by a nested PCR to generate a fragment spanning exons 43-52. The 540 bp product is the full length DMD mRNA species and the 307 bp product indicates the exon 51 skip isoform. Quantitation was performed using the Agilent Bioanalyzer and represented as the skip/full-length mRNA ratio.
# Patient fibroblasts with a DMD exon 45-50 deletion were immortalized and transduced with a lenti-viral vector expressing inducible MyoD to create iDRMs (inducibly directly reprogrammable myotubes, specifically iDRM05017s). iDRM05017s were induced for MyoD activity and then cultured for 10 days in fusion media. On Day 7, AO was added for twenty-four hours then removed and Piperacetazine, Trifluoperazine Dihydrochloride, Fluphenazine Dihydrochloride or vehicle (Dimethyl sulfoxide; DMSO) were added in fresh media. After two days total RNA was harvested, cDNA reverse transcribed with a DMD specific primer in exon 54, and exon 51 skipping was detected by nested RT-PCR spanning exons 43-52. Quantitation of exon 51 skipping was performed using the Agilent Bioanalyzer and is represented as the proportion of exon 51 skipping. Error bars represent the standard deviation (SD) of 3 independent wells.
# Patient fibroblasts were transduced with HTERT and an inducible MyoD vector [26]. […] Exon 51 skipping activity was assessed in the context of transfecting an exon 51 2′-O-methyl AO with equivalent sequence to Pro051 seven days after fusion. This AO is directed at an exonic splicing enhancer (ESE) sequence within exon 51. The AO was removed prior to addition of dantrolene and cultures were harvested two days later. A nested RT-PCR was performed between DMD exons 43-52 and levels of exon 51 skipping were determined by quantitating capillary electrophoresis separated fragments representing skipped and unskipped DMD mRNA.
compound,measurement,setting,value
O=C1CN(/N=C/c2ccc(-c3ccc([N+](=O)[O-])cc3)o2)C(=O)N1 [DANTROLENE],Average Fluorescence (n = 3),[1],18.20
same,Fluorescence Plate 1,[1],16.32
same,Fluorescence Plate 2,[1],11.76
same,Fluorescence Plate 3,[1],26.51
same,activity in the −AO screen,[1],indistinguishable from the DMSO controls
same,exon skipping activity in the screen +AO,[1],enhanced exon skipping activity
same,AO directed DMD exon 51 skipping,"DMD exon 51; compound added 24 h after AO for two days, nested RT-PCR exons 43-52",enhance AO directed DMD exon 51 skipping
same,enhancement of exon 51 skipping versus vehicle control,"DMD exon 51; with suboptimal dose of exon 51 AO, skip/full-length mRNA ratio, Bioanalyzer",up to 8 fold
